A short description of the series: gradient 5% acetonitrile 3 min, to 50% in 2 min, to 85% in 15 min, held 3 min, 100 µL/min. The settings on record: column: Zorbax Extend-C18 2.1 x 50 mm; eluents: water / acetonitrile, 0.1% formic acid. In short, it runs like this: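 Each retention time is based on an adduct peak selected computationally and verified by manual inspection. Measurements used HPLC–quadrupole time-of-flight mass spectrometry in positive and negative ionization mode on mixtures of ~100 pure standards. Chromatography ran on a Zorbax Extend-C18 column (2.1 × 50 mm, 1.8 μm) at 100 μL/min with water and acetonitrile, each containing 0.1% formic acid, and dead and dwell volumes of 40 μL and 900 μL.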
`CCC1Oc2ccc(S(=O)(=O)N3CCC(C(=O)NCc4cccc(OC)c4)CC3)cc2NC1=O` (centres undefined) returned an RP-LC retention time of 953 s.

For `Cc1nn(C)c2nc(OC(C)C(=O)NCc3cccs3)cc(-c3ccccc3)c12` (centres undefined), the RP-LC retention time came out at 1040 s.

The molecule `Cc1nnc2cc(N3CCN(C(=O)c4cccc(N(C)C)c4)CC3)cnn12` came in with an RP-LC retention time of 496 s.

As for `COC(=O)C1=CN(c2cccc(SC)c2)c2cc(F)ccc2S1(=O)=O`, the RP-LC retention time came out at 925 s.

For `Cc1nc2cccnc2n1C1CCN(C(=O)Nc2ccc(Br)cc2F)CC1`, the RP-LC retention time turned out to be 671 s.

Regarding `COc1ccc(C(=O)N2CCCn3nc(-c4cccs4)cc3C2)c(OC)c1`, the RP-LC retention time turned out to be 798 s.

Regarding `CCN1CCN(Cc2ccc(-c3cc4c(N[C@H](C)c5ccccc5)ncnc4[nH]3)cc2)CC1`, the RP-LC retention time turned out to be 628 s.

In the case of `COc1cccc(-c2ccc(SCC(=O)Nc3ccccc3C(F)(F)F)nn2)c1`, the RP-LC retention time was 912 s.

As to `Cc1nn(CC(=O)N(C)Cc2ccco2)c(=O)c2c(C)n(-c3ccccc3)nc12`, the RP-LC retention time amounted to 820 s.

Consider `Cc1cc(Cl)ccc1NC(=O)C1CCCN(c2ncnc3c2nc2n3CCCCC2)C1` (centres undefined), for which the RP-LC retention time amounted to 879 s.

Turning to `Cc1ccc(S(=O)(=O)NC2CCN(C(=O)c3ccnn3C)CC2)cc1`, the RP-LC retention time came out at 688 s.

As for `N#Cc1cccc(N2C=C(C(=O)N3CCCC3)S(=O)(=O)c3ccc(F)cc32)c1`, the RP-LC retention time amounted to 752 s.

In turn, `CCCCNC(=O)c1nnn2c1COC(c1ccc(F)cc1)C2` (centres undefined) displayed an RP-LC retention time of 929 s.

Molecule `Cc1cc(C)cc(NC(=O)Nc2nccn(-c3ccc4c(c3)CCC4)c2=O)c1` returned an RP-LC retention time of 1210 s.

Regarding `CC(C)c1noc(-c2cccnc2N2CCCN(Cc3ccc(F)cc3)CC2)n1`, the RP-LC retention time was found to be 712 s.

For the molecule `CCc1cccc(NC(=O)Nc2cnn(-c3ncc(N(C)C)cn3)c2)c1`, the RP-LC retention time was determined as 772 s.

Molecule `CCOC(=O)c1nc(N2CCc3ccccc32)c2ccccc2n1` displayed an RP-LC retention time of 935 s.

Molecule `COc1ccc(Cl)cc1NC(=O)CC1CCCCN1S(=O)(=O)c1ccc(F)cc1` (centres undefined) displayed an RP-LC retention time of 1080 s.

Consider `Cc1ccc2c(Nc3cc(F)ccc3C)c(-c3nc(C)no3)cnc2n1`, for which the RP-LC retention time came out at 784 s.

`COCC(=O)N(CC(=O)N1CCc2sccc2C1COc1ccc(Cl)c(C)c1)C(C)C` (centres undefined) displayed an RP-LC retention time of 967 s.

Consider `CS(=O)(=O)N1CCC(C(=O)Nc2ccccc2F)Oc2ccc(Cl)cc21` (centres undefined), for which the RP-LC retention time is 960 s.

The molecule `O=C(NCc1ccccc1)C1Oc2ccccc2NC1=O` (centres undefined) had an RP-LC retention time of 701 s.

For `Cc1ccc(CNC(=O)C2(C)CCN(C(=O)Nc3cc(Cl)ccc3C)CC2)cc1`, the RP-LC retention time was 936 s.

Consider `N#Cc1cccc(NC(=O)C2CCCN(S(=O)(=O)c3c[nH]c(C(=O)N4CCCC4)c3)C2)c1` (centres undefined), for which the RP-LC retention time was found to be 777 s.

With `CN(c1nc(-c2ccc([N+](=O)[O-])cc2)nc2ccccc12)C1CCCCC1`, the RP-LC retention time amounted to 993 s.

`CCn1c(-c2nonc2N)nc2c(C#CC(C)(C)O)ncc(OC[C@H]3CCCNC3)c21` displayed an RP-LC retention time of 645 s.

On to `COC(=O)C1=CN(c2ccc(OC)c(Cl)c2)c2ccccc2S1(=O)=O`, for which the RP-LC retention time was 856 s.

`CCCCNC(=O)C1CCCN(C(=O)c2cc(C)cc(C)c2)C1` (centres undefined): the RP-LC retention time was found to be 828 s.

As for `CCCNC(=O)CCNc1c(-c2ccccc2C)nc2cnccn12`, the RP-LC retention time stood at 607 s.

With `CCc1nc2cc(N3CCC(C(=O)Nc4ccc(OC)c(OC)c4)CC3)cnc2nc1CC`, the RP-LC retention time stood at 766 s.

On to `Cc1sc2ccn(CC(C)C)c(=O)c2c1C(=O)NCCN1CCCCC1`, for which the RP-LC retention time is 639 s.

`COc1ccc(CNC(=O)c2ccc3c(=O)n(-c4ccccc4)c(N4CCCC4)nc3c2)c(OC)c1` came in with an RP-LC retention time of 879 s.

In turn, `CCc1nc(-c2csc(S(=O)(=O)N3CCCC(C(=O)Nc4cc(C)ccc4OC)C3)c2)no1` (centres undefined) returned an RP-LC retention time of 1130 s.

`O=C(Cc1csc(NC(=O)c2cnccn2)n1)NCCc1c[nH]c2ccccc12` showed an RP-LC retention time of 654 s.

The molecule `Cc1ccc(CN2CCC(C(=O)N3CCCCCCNC(=O)CC3)CC2)s1` registered an RP-LC retention time of 595 s.

Consider `CCOC(=O)c1nc(N2CCN(c3cccc(OC)c3)CC2)c2c(C)noc2n1`, for which the RP-LC retention time amounted to 960 s.

Take `Cc1ccc(-c2cc3c(N4CCCC(C(=O)NC5CCCCC5)C4)nccn3n2)c(C)c1` (centres undefined): the RP-LC retention time amounted to 1010 s.

Molecule `Cc1ccc(NC(=O)Cn2nc(N3CCCC(C)C3)c3ccccc3c2=O)cc1C` (centres undefined) yielded an RP-LC retention time of 1240 s.

For `O=C(NCCN1CCN(S(=O)(=O)c2ccc(C(F)(F)F)cc2)CC1)c1ccsc1`, the RP-LC retention time was determined as 610 s.

In the case of `Cc1ccc([N+](=O)[O-])cc1S(=O)(=O)Nc1ccc(-c2cn3ccccc3n2)cc1`, the RP-LC retention time was 664 s.

`COCc1c(C(=O)O)nnn1-c1ccc(C)c(C)c1` yielded an RP-LC retention time of 757 s.

`Cc1ncc2c(n1)C[C@@H]1CC[C@H]2N1C(=O)Cc1ccccc1` yielded an RP-LC retention time of 648 s.

The molecule `Cc1cc(NC(=O)C2CCN(c3ccc(-c4cccs4)nn3)CC2)sn1` returned an RP-LC retention time of 604 s.

The molecule `O=C(Cc1noc2ccccc12)NCCOc1ccc2nnc(-c3ccc(F)cc3)n2n1` displayed an RP-LC retention time of 679 s.

`Cc1ccc(CCC(=O)Nc2cccc3ccccc23)o1` gave an RP-LC retention time of 847 s.

Molecule `Cc1ccc(NC(=O)Cn2c(=O)n(-c3ccc(F)cc3)c(=O)c3c2cc(C)n3C)cc1` came in with an RP-LC retention time of 800 s.

On to `Cc1cccc(S(=O)(=O)Nc2cc(-c3cn4ccc(C)cc4n3)ccc2C)c1`, for which the RP-LC retention time worked out at 704 s.

Take `O=C(c1csc(S(=O)(=O)N2CCC(C(=O)N3CCCC3)CC2)c1)N1CCCCCC1`: the RP-LC retention time was 769 s.

With `Cc1noc(C)c1CCC(=O)N1CCN(Cc2csc(-c3ccccc3)n2)CC1`, the RP-LC retention time amounted to 576 s.

`O=C1N(C2CCN(Cc3ccccn3)CC2)C(c2ccncc2)C12CCCCC2` (centres undefined) yielded an RP-LC retention time of 556 s.

`CCC(C)NC(=O)C1CCN(c2cnc(N3CCCCC3)nc2)CC1` (centres undefined) returned an RP-LC retention time of 686 s.

Consider `CC1CCCN(CC2CCN(S(=O)(=O)c3ccc(C#N)cc3)CC2)C1` (centres undefined), for which the RP-LC retention time was 644 s.

`O=C(NC1CCCCCC1)C1CC(=O)N(CCc2c[nH]c3ccc(F)cc23)C1` (centres undefined): the RP-LC retention time is 812 s.

For `Cc1ccc(C)c(S(=O)(=O)N2CCc3c(c(-c4nnc(-c5ccccc5F)o4)nn3C)C2)c1`, the RP-LC retention time is 1010 s.

`COc1ccc(-c2nc(C3CC(=O)N(c4ccc(C)cc4)C3)no2)c(OC)c1` (centres undefined) displayed an RP-LC retention time of 939 s.

As to `Cc1cccc(CNC(=O)C2CCN(c3nnc4c(Cl)cccn34)CC2)c1C`, the RP-LC retention time was 757 s.

Molecule `CCN(CC)CCNC(=O)CN1N=C(c2ccc(Cl)cc2)CCC1=O` had an RP-LC retention time of 625 s.

Regarding `O=C(NC1CCCCCC1)C1=C2CCCN2c2ccc(F)cc2S1(=O)=O`, the RP-LC retention time amounted to 970 s.

As to `Cc1ccn2c(NC(=O)Cc3ccccc3)c(-c3ccc(F)cc3)nc2c1`, the RP-LC retention time came out at 669 s.

`COc1ccccc1-c1ccc(SCc2cccc(C)c2)nn1` had an RP-LC retention time of 1080 s.

Consider `O=C(c1ccc(Br)o1)N1CCN(c2ccc(NCc3ccccc3)nn2)CC1`, for which the RP-LC retention time came to 668 s.

Molecule `Cc1occc1-c1nnc2sc(COc3ccc(F)cc3)nn12` gave an RP-LC retention time of 939 s.

For `CCN(Cc1cnn(CC)c1)C(=O)C1CN(C(=O)c2ccccc2)CC12CCCCC2` (centres undefined), the RP-LC retention time came to 812 s.

`CCOC(=O)c1ccc(NC(=O)C2CCN(S(=O)(=O)c3cn(CC)cn3)CC2)cc1` registered an RP-LC retention time of 774 s.

Take `CC(=O)N1CCc2cc(N3CC(C(=O)NCc4ccccc4F)CC3=O)ccc21` (centres undefined): the RP-LC retention time is 763 s.

`COc1ccc(-n2ccn3cc(-c4ccc(OC)c(OC)c4)nc3c2=O)cc1Cl`: the RP-LC retention time stood at 780 s.

On to `Cc1ccc(Cn2cccc(C(=O)Nc3nc4c(C)cccc4s3)c2=O)cc1`, for which the RP-LC retention time is 1240 s.

On to `COCCNC(=O)C1CCN(c2nc3ccc(-c4ccc(F)cc4)nc3s2)CC1`, for which the RP-LC retention time is 835 s.

`Cc1nc2ccn(Cc3cccs3)c(=O)c2cc1C(=O)N1CCN(c2ccccn2)CC1` came in with an RP-LC retention time of 611 s.

In turn, `CCOC(=O)c1c(C)n(C)c2ccc(O)cc12` came in with an RP-LC retention time of 803 s.

Consider `CCc1nc2cccnc2n1CCN1CCN(C(=O)Nc2ccccc2Cl)CC1`, for which the RP-LC retention time amounted to 583 s.

As for `CC(C)CNC(=O)c1ccc2c(c1)Sc1ncccc1C(=O)N2C(C)C`, the RP-LC retention time is 805 s.

For the molecule `O=C(c1cnccn1)N1CCC(c2nc(-c3ccccc3)no2)C1` (centres undefined), the RP-LC retention time was found to be 758 s.

In turn, `Cc1ccc(-n2ncc3c(NCCN(C)C)ncnc32)cc1Cl` had an RP-LC retention time of 669 s.

Take `CCOC(=O)c1noc2nc(C)nc(Nc3ccc(C)c(F)c3)c12`: the RP-LC retention time is 1230 s.

`COc1cccc(NS(=O)(=O)c2cc(-c3[nH]ncc3C(=O)N(C)C)oc2C)c1`: the RP-LC retention time was determined as 668 s.

For `Cc1cccc(CN2CCCn3nc(C(=O)NCCN4CCOCC4)cc3C2=O)c1`, the RP-LC retention time was 621 s.

In turn, `Nc1cc(C2CCN(C(=O)Cc3ccc(F)cc3)CC2)no1` gave an RP-LC retention time of 684 s.

With `CCSc1nc2nc3c(cn2n1)C(=O)CCC3`, the RP-LC retention time stood at 723 s.

The values above are taken from the METLIN SMRT retention time set (Domingo-Almenara et al. 2019).
